# Test results: the supplement of paper PMC10307832
# Tests used:
# Experiment in all cases: relative viability (nuclei count vs DMSO), 5 days (fraction); higher = more cells survive
# [1] = system: A-427
# Summary of the method: (§1)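 Lung cancer cell lines were seeded in 1536-well plates and dosed by pin tool the next day, with either a single drug or a fixed anchor-drug dose combined with five library-drug doses (not always all listed) spaced in √10 steps. Five days later, one step fixed the cells and stained their nuclei (final 0.05% Triton X-100, 1% formaldehyde, 1 ug/ml Hoechst), and nuclei were counted on 4× images. Relative viability is the nuclei count in treated wells divided by the count in vehicle wells, and each value is the median of duplicate plates.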
# [2] = system: HCC-15
# Summary of the method: as §1
# [3] = system: HCC-78
# Summary of the method: as §1
# [4] = system: HOP-62
# Summary of the method: as §1
# [5] = system: LC-2-ad
# Summary of the method: as §1
# [6] = system: LXF-289
# Summary of the method: as §1
# [7] = system: NCI-H1734
# Summary of the method: as §1
# [8] = system: NCI-H1755
# Summary of the method: as §1
# [9] = system: NCI-H1792
# Summary of the method: as §1
# [10] = system: NCI-H1915
# Summary of the method: as §1
# [11] = system: NCI-H1975
# Summary of the method: as §1
# [12] = system: NCI-H2126
# Summary of the method: as §1
# [13] = system: NCI-H2228
# Summary of the method: as §1
# [14] = system: NCI-H2342
# Summary of the method: as §1
# [15] = system: NCI-H2347
# Summary of the method: as §1
# [16] = system: NCI-H358
# Summary of the method: as §1
# [17] = system: NCI-H522
# Summary of the method: as §1
# [18] = system: NCI-H647
# Summary of the method: as §1
# [19] = system: PC-3 [JPC-3]
# Summary of the method: as §1
# [20] = system: RERF-LC-KJ
# Summary of the method: as §1
# [21] = system: SK-LU-1
# Summary of the method: as §1
# [22] = system: SW 1573
# Summary of the method: as §1
structure (smiles),measurement,setting,value
COc1nc(C)cnc1NS(=O)(=O)c1cccnc1-c1ccc(-c2nnco2)cc1 [Zibotentan] + CC(=O)Nc1cccc(-n2c(=O)n(C3CC3)c(=O)c3c(Nc4ccc(I)cc4F)n(C)c(=O)c(C)c32)c1 [Trametinib] (partner 0.02 µM),relative viability,[1]; first compound 0.08 µM,0.813
same,relative viability,[1]; first compound 0.253 µM,0.72
same,relative viability,[1]; first compound 0.8 µM,0.845
same,relative viability,[1]; first compound 2.53 µM,0.83
same,relative viability,[2]; first compound 0.08 µM,0.397
same,relative viability,[2]; first compound 0.253 µM,0.412
same,relative viability,[2]; first compound 0.8 µM,0.414
same,relative viability,[2]; first compound 2.53 µM,0.319
same,relative viability,[3]; first compound 0.08 µM,0.825
same,relative viability,[3]; first compound 0.253 µM,0.569
same,relative viability,[3]; first compound 0.8 µM,0.665
same,relative viability,[3]; first compound 2.53 µM,0.652
same,relative viability,[4]; first compound 0.08 µM,0.429
same,relative viability,[4]; first compound 0.253 µM,0.367
same,relative viability,[4]; first compound 0.8 µM,0.421
same,relative viability,[4]; first compound 2.53 µM,0.39
same,relative viability,[5]; first compound 0.08 µM,0.928
same,relative viability,[5]; first compound 0.253 µM,0.858
same,relative viability,[5]; first compound 0.8 µM,0.913
same,relative viability,[5]; first compound 2.53 µM,0.935
same,relative viability,[6]; first compound 0.08 µM,0.61
same,relative viability,[6]; first compound 0.253 µM,0.622
same,relative viability,[6]; first compound 0.8 µM,0.675
same,relative viability,[6]; first compound 2.53 µM,0.675
same,relative viability,[7]; first compound 0.08 µM,0.721
same,relative viability,[7]; first compound 0.253 µM,0.705
same,relative viability,[7]; first compound 0.8 µM,0.647
same,relative viability,[7]; first compound 2.53 µM,0.733
same,relative viability,[8]; first compound 0.08 µM,0.737
same,relative viability,[8]; first compound 0.253 µM,0.745
same,relative viability,[8]; first compound 0.8 µM,0.797
same,relative viability,[8]; first compound 2.53 µM,0.792
same,relative viability,[9]; first compound 0.08 µM,0.546
same,relative viability,[9]; first compound 0.253 µM,0.479
same,relative viability,[9]; first compound 0.8 µM,0.389
same,relative viability,[9]; first compound 2.53 µM,0.537
same,relative viability,[10]; first compound 0.08 µM,0.325
same,relative viability,[10]; first compound 0.253 µM,0.313
same,relative viability,[10]; first compound 0.8 µM,0.347
same,relative viability,[10]; first compound 2.53 µM,0.296
same,relative viability,[11]; first compound 0.08 µM,0.336
same,relative viability,[11]; first compound 0.253 µM,0.355
same,relative viability,[11]; first compound 0.8 µM,0.358
same,relative viability,[11]; first compound 2.53 µM,0.34
same,relative viability,[12]; first compound 0.08 µM,0.558
same,relative viability,[12]; first compound 0.253 µM,0.525
same,relative viability,[12]; first compound 0.8 µM,0.557
same,relative viability,[12]; first compound 2.53 µM,0.563
same,relative viability,[13]; first compound 0.08 µM,0.398
same,relative viability,[13]; first compound 0.253 µM,0.62
same,relative viability,[13]; first compound 0.8 µM,0.572
same,relative viability,[13]; first compound 2.53 µM,0.49
same,relative viability,[14]; first compound 0.08 µM,0.848
same,relative viability,[14]; first compound 0.253 µM,0.78
same,relative viability,[14]; first compound 0.8 µM,0.844
same,relative viability,[14]; first compound 2.53 µM,1.16
same,relative viability,[15]; first compound 0.08 µM,0.252
same,relative viability,[15]; first compound 0.253 µM,0.272
same,relative viability,[15]; first compound 0.8 µM,0.339
same,relative viability,[15]; first compound 2.53 µM,0.287
same,relative viability,[16]; first compound 0.08 µM,0.15
same,relative viability,[16]; first compound 0.253 µM,0.109
same,relative viability,[16]; first compound 2.53 µM,0.145
same,relative viability,[17]; first compound 0.08 µM,0.732
same,relative viability,[17]; first compound 0.253 µM,0.667
same,relative viability,[17]; first compound 0.8 µM,0.727
same,relative viability,[17]; first compound 2.53 µM,0.856
same,relative viability,[18]; first compound 0.08 µM,0.452
same,relative viability,[18]; first compound 0.253 µM,0.42
same,relative viability,[18]; first compound 0.8 µM,0.431
same,relative viability,[18]; first compound 2.53 µM,0.532
same,relative viability,[19]; first compound 0.08 µM,0.628
same,relative viability,[19]; first compound 0.253 µM,0.508
same,relative viability,[19]; first compound 0.8 µM,0.723
same,relative viability,[19]; first compound 2.53 µM,0.715
same,relative viability,[20]; first compound 0.08 µM,0.96
same,relative viability,[20]; first compound 0.253 µM,0.842
same,relative viability,[20]; first compound 0.8 µM,0.804
same,relative viability,[20]; first compound 2.53 µM,0.888
same,relative viability,[21]; first compound 0.08 µM,0.503
same,relative viability,[21]; first compound 0.253 µM,0.472
same,relative viability,[21]; first compound 0.8 µM,0.451
same,relative viability,[21]; first compound 2.53 µM,0.458
same,relative viability,[22]; first compound 0.08 µM,0.548
same,relative viability,[22]; first compound 0.8 µM,0.411
same,relative viability,[22]; first compound 2.53 µM,0.729
